In patent US8822509B2, “Pain-relieving compositions and uses therefor” (priority 2006, dated 2014):
Values joined by “and” are separate entries in the source; they are usually repeats but may differ in a detail not shown here. Equal values may be shown once.

What was measured:
[1] = tested on: hindpaws of control non-diabetic rats; test: Antinociception by von Frey PWT in control non-diabetic rats; format: in vivo, Wistar rats; details: single s.c. bolus; morphine 1.8-21.4 μmol/kg, Compound 1 2-20 fmol/kg
Description: Briefly, baseline PWTs were determined for both hindpaws prior to each antinociceptive testing session in the non-diabetic control group at week 0 as well as in groups of STZ-diabetic rats at 10, 14 and 24 wks.
The PWT vs time data were normalized by subtracting the pre-dosing baseline PWT values for each individual rat to obtain ΔPWT values as follows: Normalized (Δ)PWT value=Post-treatment PWT value−PWT value prior to treatment.
ΔPWT versus time curves were then constructed. Trapezoidal integration was used to estimate ΔPWT AUC values for individual rats in the non-diabetic and STZ-diabetic rat treatment groups. ΔPWT AUC versus dose curves were constructed and GraphPad™ Prism was used to estimate the ˜ED50 values.

STZ-diabetic rats = test: Tolerance development (7-day s.c. infusion, 2-day washout) in STZ-diabetic rats, von Frey PWT; format: in vivo
[2] = In vitro NO release (Total NOx, modified Griess reagent assay)
Description: Briefly, HEK-MOP cells were seeded at 1×10^5 cells/mL and grown in 10 cm plates to 90% confluence. Four hours prior to experimentation, cell medium was replaced with phenol red-free DMEM. […] Following removal of each supernatant sample, it was replaced with 500 μL of phenol red-free DMEM. Samples were immediately placed on ice until NOx concentrations were quantified.
Sample aliquots (100 μL) were added to 96-well plates in duplicates. Nitrate was first converted to nitrite to determine total NOx concentrations with the addition of 100 μL aliquots of vanadium (III) chloride in 1M HCl (800 mg/100 mL) per well, followed by 100 μL aliquots of modified Griess reagent which converted nitrite to a deep purple azo derivative for spectrophotometric quantification at 560 nm using an Envision Multilabel Plate Reader (PerkinElmer Life Sciences). […] Total NOx and nitrite concentration was determined through inverse prediction against the nitrite standard curve.

MOP receptor = biological target: T1, MOP receptor (Mus musculus, UniProt P42866); test: Displacement of specific binding of [3H]-DAMGO from membranes of MOP-transfected HEK293 cells
T1 construct: expressed in transfected cells; host or cells: HEK293 (membranes of MOP-HEK cells)
T1 sequence (P42866 whole entry): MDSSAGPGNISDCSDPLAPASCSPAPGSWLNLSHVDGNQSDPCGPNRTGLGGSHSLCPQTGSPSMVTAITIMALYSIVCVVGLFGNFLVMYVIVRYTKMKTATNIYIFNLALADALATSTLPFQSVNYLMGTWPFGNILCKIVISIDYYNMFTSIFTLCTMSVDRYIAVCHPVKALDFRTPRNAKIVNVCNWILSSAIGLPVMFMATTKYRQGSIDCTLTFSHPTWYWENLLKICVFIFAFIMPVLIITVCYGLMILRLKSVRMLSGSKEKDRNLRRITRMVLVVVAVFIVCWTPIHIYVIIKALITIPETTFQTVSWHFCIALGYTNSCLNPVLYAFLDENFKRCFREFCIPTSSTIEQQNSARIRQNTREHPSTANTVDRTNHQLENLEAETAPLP
Description: A binding assay was performed to determine whether Compound 1 binds at the MOP receptor.
Stably transfected MOP-HEK cells were plated in a 3×10 cm dish and washed with (3×5 mL) 50 mM Tris-HCl (pH 7.4) when sufficiently confluent. The cells were scraped off the dish in 1.5 mL 50 mM Tris-HCl (pH 7.4) using a transfer pipette and place in 15 mL falcon tubes. The cells were sonicated for a 5 second burst and placed on ice. The protein concentration was estimated. The cells were transferred to a 1.5 mL eppendorf tube and centrifuged at 18,000 rcf for 30 minutes at 4° C. The supernatant was removed and the cells resuspended in 50 mM Tris-HCl (pH 7.4) and 1 mg/mL BSA. An aliquot containing 30-50 μg/200 μL protein was taken and [^3H]DAMGO was added (200 μL in Tris-HCl, pH 7.4) with varying concentrations of unlabelled [D-Ala^2, N-Me-Phe^4, Gly^5-ol]-enkephalin acetate (DAMGO) or Compound 1 (200 μL in Tris-HCl, pH 7.4), total volume 600 μL. The solution was incubated for 1 hour at room temperature with slow rotation.

[3] = STZ-diabetic rats, second bolus Compound 1 800 pmol/kg after 2-day washout
[4] = naïve STZ-diabetic rats, first s.c. bolus

Structure (SMILES): Cc1c(C=O)no[n+]1[O-] [Compound 1, 4-formyl-3-methyl-1,2,5-oxadiazole-2-oxide]
- antinociception in the hindpaws of control non-diabetic rats [1]: dose-dependent antinociception
- tolerance after 7-day s.c. infusion (STZ-diabetic rats; STZ-diabetic rats): completely tolerant
- anti-allodynia after second bolus (tolerance status) (STZ-diabetic rats; STZ-diabetic rats, after 2-day washout, morphine 10.5 μmol/kg, Compound 1 800 pmol/kg): significant reversal of tolerance
- mean duration of action (STZ-diabetic rats; [3]): 2 to 3 h
- time of peak anti-allodynia post-dosing (STZ-diabetic rats; [3]): ~1 h
- mean duration of action (STZ-diabetic rats; [4]): ~4 h
- time of peak anti-allodynia post-dosing (STZ-diabetic rats; [4]): 1 h
- mean (±SEM) peak PWT (STZ-diabetic rats; naïve STZ-diabetic rats, Compound 1 800 pmol/kg, morphine 10.4 μmol/kg s.c. bolus): 11.6 (±0.6) g
- Release of NO (Total NOx %) ([2]; Compound 1, 1 mM + L-Cysteine 5 mM, 6-h (b277 prints 50 mM)): 2.7±0.3% and 2.7 + 0.3%
- Release of NO (Total NOx %) ([2]; Compound 1, 1 mM, 6-h study period): 1.8% and 1.8±0.3%
- 1 Hour Total NOx ([2]; NOx analysis at 1 hour, assay of Example 9): 2.08 µM and 2.19 µM
- 6 Hours Total NOx ([2]; NOx analysis at 6 hours, assay of Example 9): 2.52 µM
- binding to MOP receptors ([3H]-DAMGO displacement) (MOP receptor): does not bind significantly
